Entries after “also recorded” stand apart in the source; their conditions may differ. Like-named read-outs stand apart in the source and are kept apart here.
What was measured:
[1] = target: T1, human α-synuclein aggregates (Homo sapiens, UniProt P37840); experiment: Fluorescence saturation binding of compounds to α-synuclein aggregates
T1 construct: made in house; host or cells: E. coli BL21 (DE3)
Experimental: 1 μL ampicillin anti-plasmid with α-synuclein in the correct sequence was mixed with 100 μL BL21 (DE3) receptive cells, cooled in an ice bath, added in 600 μL LB medium, and cultured in a 220 rpm shaking bed at 37° C. for 90 min. 150 μL cultured bacterial solution was added to the sterilized dish coated with ampicillin medium evenly. Positive clonal colonies were selected and added to the configured ampicillin medium and cultured in an incubator at 37° C. The cultured positive clones were poured into 1 L of 2×YT medium and cultured in a 220 rpm shaker at 37° C. to make OD 600 0.6 and then cooled to 18° C. Each medium was induced to culture for 16 hours by adding 1 ml of IPTG (500 mM).
The bacteria were centrifuged at high speed for 30 min after ultrasonic. The supernatant was collected to remove DNA and hetero-proteins by Ni-NTA chromatography. α-synuclein monomer was purified by molecular exclusion chromatography and the purity was verified by SDS-PAGE discontinuous electrophoresis.
α-synuclein monomers were prepared into a buffer solution containing 1×PBS, wherein the final protein concentration was 100 μM (about 5 mg/mL), and incubated in a 1000 rpm shaker at 37° C. for 7 days to obtain α-synuclein aggregates. The initial and final concentrations of the monomer protein were determined by the BCA method.
10 mM mother solution of DMSO was prepared from 1 mg of the compound, then diluted to 20 μM with PBS, and made gradient dilution 7 times (3× each dilution); 30 μL of test compound was added to the 384-well plate, following the experimental group was added to 30 μL α-synuclein aggregates (3 μM), and the control group was added to the same amount of PBS. After the 384-well plate was incubated shaking at 50 rpm at room temperature for 1 hour, the plate was taken out to detect the maximum absorption and emission wavelengths of the compound with an ELISA Microplate Reader, and the fluorescence values were detected at these wavelengths, too. The fluorescence changes in different concentrations of compounds were calculated using the experimental group data minus the control group data, and the protein-binding affinity of compounds was obtained using the Saturation binding module of GraphPad Prism.
The binding affinity of the Formula I compound to α-synuclein aggregates is determined by the above method, and the dissociation equilibrium constant Kd is shown in Table 1.

[2] = target: T2, Lewy bodies and Lewy neurites (α-synuclein lesions) (Homo sapiens, UniProt P37840); experiment: Fluorescence staining of brain slices from patients of dementia with Lewy body (DLB); format: binding; settings: for Staining of Lewy bodies and Lewy neurites in DLB patient brain slices: 30 μM compound, frozen amygdala sections 20 μm, fluorescence microscopy, FIG. 1; for Binding to α-synuclein pathological tissue compared with Aβ and Tau pathological tissue (selectivity): DLB versus AD brain slices, FIG. 1 and FIG. 2
T2 construct: from tissue; host or cells: human amygdala, DLB patient, fresh frozen sections
Experimental: Brain slices from patients with dementia with Lewy bodies were taken from the amygdala of a deceased person in stage 2 of dementia with Lewy bodies. Frozen sections of the amygdala with rich α-synuclein were performed with a thickness of 20 μm.
(§1) The tested compound was diluted to 30 μM with PBS solution containing 50% EtOH, following incubated with the fresh frozen brain sections at room temperature for 30 minutes, then washed with 50% ethanol solution for 5 minutes and ultra-pure water twice for 3 minutes each time in sequence. After the sections were buried with an embedding agent (VECTASHIELD H-1000, Vector Laboratories), images of the lesion accumulation area on the sections were obtained by fluorescence microscopy. Analysis software (Image J) was used to quantify the fluorescence radiance of both the lesion area and the area of the non-forming lesion (background) to evaluate binding selectivity.

[3] = target: T3, Aβ lesions (Homo sapiens, UniProt P05067); experiment: Fluorescence staining of brain slices from patients with Alzheimer's disease (AD), Aβ; format: binding; settings: 30 μM compound, superior temporal gyrus sections 6 μm, fluorescence microscopy, FIG. 2
T3 construct: from tissue
T3 sequence (P05067 672-713 limits assumed): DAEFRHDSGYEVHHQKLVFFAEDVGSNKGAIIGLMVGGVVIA
Experimental: as §1
(§2) The dewaxed brain tissue was fixed in a 10% neutral buffer of formalin solution, embedded with paraffin, and then sliced with a thickness of 6 μm. The staining method is the same as the above method for DLB patients.

[4] = tested on: Tau neurofibrillary filaments; experiment: Fluorescence staining of brain slices from patients with Alzheimer's disease (AD), Tau; format: binding, human; settings: 30 μM compound, superior temporal gyrus sections 6 μm, fluorescence microscopy, FIG. 2
Experimental: as §1, §2

[5] = Blood-brain barrier permeability test, rat tail vein injection; format: in vivo; settings: brain / blood supernatant after centrifugation, intravenous, SD rats, 5 mg/kg tail vein, 20 min after administration, LC-MS/MS, read-out: brain/blood ratio
Experimental: The compound of the invention is injected into a rat tail vein to determine the blood-brain barrier permeability in vivo according to the following method.
Dissolve the tested compound in DMSO, and add castor oil and PBS for dilution (DMSO:castor oil:PBS=1:1:8). SD rats were weighed and given 5 mg/kg in the tail vein. 500 μL of blood was taken 20 min after administration after anesthetized with isoflurane. Cardiac perfusion was performed with 200 mL PBS and stopped until the organ faded, following brain tissue was got out and washed with PBS.
After centrifuging the extracted blood at 9000 rpm for 5 min, 200 μL supernatant was taken and added 800 μL methanol. After centrifuging at 14000 rpm for 10 min, the supernatant was taken and filtered through a 0.22 μm filter membrane and stored at −80° C. for use.
2 mL PBS and 2 mL methanol were added to about 0.5 g of brain tissue to make a tissue homogenization, and then 1 mL homogenate was taken out and centrifuged at 14,000 rpm for 10 min after 2 mL methanol was added, 1 mL supernatant was taken through 0.22 μm filter membrane and stored at −80° C. for use. The concentration of compounds in the above supernatant of blood and brain homogenate were checked by LC-MS/MS, respectively.

[6] = fluorescence method, α-synuclein aggregates (3 μM), room temperature 1 hour, read-out: Binding affinity (Kd) on human α-synuclein aggregates

Row | Structure (SMILES) | Kd [1, 6] | Binding to α-synuclein pathological tissue compared with Aβ and Tau pathological tissue (selectivity) [2] | Kp at 20 min [5] | Kd [1] | Staining of Lewy bodies and Lewy neurites in DLB patient brain slices [2] | Staining/binding of Aβ lesions in AD patient brain slices [3] | Staining/binding of Tau neurofibrillary filaments in AD patient brain slices [4]
1 | CN1CCN(c2ccc3oc(-c4ccc(N(C)C)nc4)nc3c2)C(=O)C1 [I-4] | – | significantly stronger | ≥ 1 | 0.1 to 0.2 µM | can stain Lewy bodies and Lewy neurites; also recorded: can well label the α-synuclein in Lewy bodies and Lewy neurites | could also detect Aβ lesions; also recorded: very weak binding | fail to Tau neurofibrillary filaments; also recorded: no binding
2 | Fc1ccc(-c2ccc3oc(-c4ccc(N5CCCC5)nc4)nc3c2)cn1 [I-5] | 0.2 to 0.5 µM | significantly stronger | ≥ 1 | – | can stain Lewy bodies and Lewy neurites; also recorded: can well label the α-synuclein in Lewy bodies and Lewy neurites | could also detect Aβ lesions; also recorded: very weak binding | fail to Tau neurofibrillary filaments; also recorded: no binding
3 | Fc1ccc(-c2ccc3nc(-c4ccc(N5CCCC5)nc4)oc3c2)cn1 [I-6] | 0.2 to 0.5 µM | significantly stronger | ≥ 1 | – | can stain Lewy bodies and Lewy neurites; also recorded: can well label the α-synuclein in Lewy bodies and Lewy neurites | could also detect Aβ lesions; also recorded: very weak binding | fail to Tau neurofibrillary filaments; also recorded: no binding

The next lines start with results.

Row | Kd [1, 6] | Binding to α-synuclein pathological tissue compared with Aβ and Tau pathological tissue (selectivity) [2] | Kp at 20 min [5] | Structure (SMILES) | Kd [1] | Staining of Lewy bodies and Lewy neurites in DLB patient brain slices [2] | Staining/binding of Aβ lesions in AD patient brain slices [3] | Staining/binding of Tau neurofibrillary filaments in AD patient brain slices [4]
4 | 0.5 to 1 µM | – | – | CN(C)c1ccc(-c2nc3cc(-c4cccnc4)ccc3o2)cn1 [I-1] | – | – | – | –
5 | 0.5 to 1 µM | – | – | CN(C)c1ccc(-c2nc3cc(-c4cccnc4)ccc3o2)cc1 [I-2] | – | – | – | –
6 | 0.2 to 0.5 µM | – | – | CN(C)c1ccc(-c2nc3cc(N4CCN(CCF)CC4=O)ccc3o2)cn1 [I-10] | – | – | – | –
